The record followed here is patent US20240327463A1, “ANTIBACTERIAL PRODUCTS” (priority 2017, published 2024).

The test system of one data set is MRSA ATCC 700699. Kind of data set: microbe, parasite or virus in culture. The note with it: ATCC 700699. An outline of the steps: (§1)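 Peptides were dissolved in DMSO and serially diluted twofold in Mueller Hinton broth from a top concentration of 512 μg/ml. Bacteria were grown in the same broth, and plates were incubated at 37° C for 24 hours. MIC was the lowest concentration showing no visible growth, done three times.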

Another data set relates to MRSA DM21455 (eye). Kind of data set: microbe, parasite or virus in culture. The note with it: DM21455 (eye). In outline: as §1
A further data set relates to VRE ATCC 29212. Kind of data set: microbe, parasite or virus in culture. Conditions: ATCC 29212. In outline: as §1
The next data set concerns VRE ATCC 700802. Put plainly: microbe, parasite or virus in culture. The note with it: ATCC 700802. An outline of the steps: as §1
In a further data set the test system is M. smegmatis ATCC 607. Kind of data set: microbe, parasite or virus in culture. The note with it: ATCC 607. In outline: as §1
A further data set relates to MRSA DR 42412 (sputum). Kind of data set: microbe, parasite or virus in culture. Conditions: DR 42412 (sputum). An outline of the steps:
as §1

Data set [1] relates to Staphylococcus aureus ATCC 29213. Put plainly: microbe, parasite or virus in culture. Conditions: ATCC 29213. An outline of the steps:
as §1

A further data set relates to Mycobacterium smegmatis. It counts as cell-based. An outline of the steps:
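Bacteria were cultured in Mueller Hinton broth, and all incubations were run at 37 °C. Compounds were serially diluted in Mueller Hinton across the plate up to well 11. Each determination was repeated three times.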

The next data set has as its system MRSA ATCC 33591. The note with it: ATCC 33591. In outline: as §1
For data set [2], the system named is human primary dermal fibroblasts (hDFs). Put plainly: Cytotoxicity in primary dermal fibroblasts (MTS assay, high content imaging). Conditions: hDFs; 24 h. The method, then: (§2) It was important to evaluate the cytotoxicity of Compound 26 on mammalian cells prior to in vivo studies. The cytotoxicity of Compound 26 in human lung epithelial cell line A549 and primary dermal fibroblasts (hDFs) was determined. Both of these cell culture models are already established for evaluation of cytotoxicity of antimicrobial peptides.
(§3) The stock solution of Compound 26 (500 μg/ml) was prepared fresh by directly dissolving Compound 26 in cell culture medium and used. Cells were treated with dimethyl sulfoxide (DMSO, 0.1% v/v) or nocodazole (5 μg/ml dissolved in DMSO) as controls. At the end of the treatment period, metabolic activities of cells were quantified by MTS-based cell viability assay. […] After 24 h treatment with Compound 26, A549 cells (c) and hDFs (d) were fixed, fluorescently stained with rhodamine-phalloidin (red), alexa fluor 488 conjugated anti-α-tubulin (green) and Hoechst 33342 (blue) and imaged using IN Cell Analyzer 2200 automated microscope. Representative images of cells treated with Compound 26 (62.5 μg/ml for 24 h) or nocodazole (10 μg/ml, toxicity control) are shown in FIG. 2 c,d.
Background: Formazan colour is commonly taken as a measure of viable cells.

In data set [3] the test system is human lung epithelial cell line A549. Kind of data set: Cytotoxicity in A549 cells (MTS assay, high content imaging). Conditions: A549; 24 h. Here is the method:
as §2, §3

SMILES strings stand for the structures. Values after ≈ are worked out from the molar mass of the structure shown. Bridge positions count the residues as written; N and C are the ends. Square brackets hold non-standard residues; d marks the D form. Peptide text beside a SMILES is read from it. * marks the point of attachment. dNMeF = CN[C@H](Cc1ccccc1)C(=O)O; X1 = NCC(CN)OC(=O)*

In the case of `CC[C@@H](C)[C@@H](NC(=O)[C@@H](CCC(N)=O)NC(=O)[C@H](CO)NC(=O)[C@@H](NC(=O)[C@@H](Cc1ccccc1)NC)[C@@H](C)CC)C(=O)N[C@H](C(=O)N[C@@H](CO)C(=O)N[C@H]1C(=O)N[C@@H](C)C(=O)N[C@@H](C)C(=O)N[C@@H]([C@@H](C)CC)C(=O)O[C@H]1C)[C@@H](C)CC` [Compound 14], the MBC in the data set on MRSA ATCC 700699 amounted to 16 µg/mL (≈ 13.8 µM); with MRSA DM21455 (eye) it was 2 µg/mL (≈ 1.73 µM); against MRSA DR 42412 (sputum) it was 4 µg/mL (≈ 3.45 µM); in data set [1] it was 2 µg/mL (≈ 1.73 µM). In addition, the MIC against MRSA ATCC 700699 is 4 µg/mL (≈ 3.45 µM); in the data set on MRSA DM21455 (eye), 1 µg/mL (≈ 0.863 µM); against VRE ATCC 29212 it was 4 µg/mL (≈ 3.45 µM); in the data set with VRE ATCC 700802, 4 µg/mL (≈ 3.45 µM); with M. smegmatis ATCC 607, 1 to 2 µg/mL; against MRSA DR 42412 (sputum) it was 1 µg/mL (≈ 0.863 µM). Also, the MIC in [1] worked out at 1 µg/mL (≈ 0.863 µM). Moreover, in the data set on Mycobacterium smegmatis, the “MIC (μg/mL) Mycobacterium smegmatis” value turned out to be 2 µg/mL (≈ 1.73 µM). In addition, the “MIC (MRSA*)” value with MRSA ATCC 33591 lay in the range of 1 to 2 µg/mL.

For `CC[C@@H](C)[C@@H](NC(=O)[C@@H](CCC(N)=O)NC(=O)[C@H](CO)NC(=O)[C@@H](NC(=O)[C@@H](Cc1ccccc1)NC)[C@@H](C)CC)C(=O)N[C@H](C(=O)N[C@@H](CO)C(=O)N[C@H]1C(=O)N[C@@H](C)C(=O)N[C@@H](CCCCNC(=O)OC(CN)CN)C(=O)N[C@@H]([C@@H](C)CC)C(=O)O[C@H]1C)[C@@H](C)CC` [Compound 21, Diamino10-Teixobactin] (H-[dNMeF]IS[dQ][dI]IS[dT]AK(X1)I; ester 8-C), the “MIC (μg/mL) Mycobacterium smegmatis” value in the data set on Mycobacterium smegmatis stood at 0.5 µg/mL (≈ 0.375 µM). Besides, the “MIC (MRSA*)” value in the data set with MRSA ATCC 33591 was 0.25 µg/mL (≈ 0.188 µM).

In the case of `COC(=O)Nc1nc2ccc(C(=O)c3cccs3)cc2[nH]1` [nocodazole, reference compound], the “cell morphology, high content images” value in data set [2] and in data set [3] was “substantial loss of adhered cells” each time.
